From patent US9062041B2 (Bayer Intellectual Property GmbH, priority 2011, dated 2015) come the findings set out here.

Holding throughout (assay type): cell-based
The target in one assay is T1, human PGD receptor (Homo sapiens, UniProt Q13258).
T1 sequence (Q13258 1-359): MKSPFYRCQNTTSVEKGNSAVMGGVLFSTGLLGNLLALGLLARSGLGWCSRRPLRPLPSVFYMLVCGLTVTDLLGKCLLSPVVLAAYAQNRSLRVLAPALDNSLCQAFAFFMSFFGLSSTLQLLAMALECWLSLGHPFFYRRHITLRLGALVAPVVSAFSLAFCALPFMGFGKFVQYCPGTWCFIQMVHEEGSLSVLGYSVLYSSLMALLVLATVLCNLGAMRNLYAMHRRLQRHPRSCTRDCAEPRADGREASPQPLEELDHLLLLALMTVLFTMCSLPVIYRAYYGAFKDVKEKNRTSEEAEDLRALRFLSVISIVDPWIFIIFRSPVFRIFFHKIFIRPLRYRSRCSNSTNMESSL
As to the kind of experiment: cAMP antagonism test on the human prostaglandin D receptor (HTRF cAMP detection). Conditions: selectivity towards hDP, IC50 measured by cAMP antagonism test. Summed up:
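HTRF competition read-out (665/620 nm ratio ×10000), where higher FRET means less cAMP, i.e. antagonism. Compounds (0.8 nM–16.5 μM) were preincubated 20 min at RT with cells and cAMP-d2, PGD2 (3× solution, 6 nM) in IBMX-containing PBS added for 30 min at RT, then cells lysed 20 min.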
Background: Time-resolved FRET reads energy transfer from a long-lived donor to a nearby acceptor.

In assay [1] the target is EP2 subtype of the human PGE2 receptor (Homo sapiens, UniProt P43116). Nature of the assay: cAMP antagonism test on the human EP2 receptor (HTRF cAMP detection). Conditions: hEP2 receptor, read-out: Antagonism hEP2 IC50. A digest of the protocol:
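Read-out is a competitive HTRF for cAMP: lysate cAMP displaces cAMP-d2 from Eu cryptate-labelled antibody, and antagonism raises the 665/620 nm ratio. Compound (0.8 nM–16.5 μM) added to EP2 cells 20 min at RT before 60 min PGE2 challenge (3× stock 1.5 nM) with IBMX, followed by 20 min lysis.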

In assay [2] the target is EP4 subtype of the human PGE2 receptor (Homo sapiens, UniProt P35408). Nature of the assay: cAMP antagonism test on the human EP4 receptor (HTRF cAMP detection). Conditions: selectivity towards hEP4, IC50 measured by cAMP antagonism test. A digest of the protocol:
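Competitive HTRF cAMP read-out (cAMP-d2 vs Eu-cryptate anti-cAMP antibody, 665/620 nm ratio) on lysed human EP4 cells. Compound (0.8 nM–16.5 μM) applied 20 min at RT before 60 min PGE2 challenge (3× solution 0.3 nM, IBMX present); 20 min lysis precedes reading.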

Chain of EP2 subtype of the human PGE2 receptor (P43116 whole entry): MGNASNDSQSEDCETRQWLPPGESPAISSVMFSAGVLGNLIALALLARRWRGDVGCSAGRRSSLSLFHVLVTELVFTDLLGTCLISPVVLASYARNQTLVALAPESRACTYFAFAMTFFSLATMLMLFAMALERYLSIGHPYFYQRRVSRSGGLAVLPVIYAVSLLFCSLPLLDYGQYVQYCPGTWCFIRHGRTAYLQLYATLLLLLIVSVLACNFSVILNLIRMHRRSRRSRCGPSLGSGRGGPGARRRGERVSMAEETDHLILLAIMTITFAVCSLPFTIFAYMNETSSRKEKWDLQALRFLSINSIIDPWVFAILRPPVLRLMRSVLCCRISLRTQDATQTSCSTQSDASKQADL
Chain of EP4 subtype of the human PGE2 receptor (P35408 whole entry): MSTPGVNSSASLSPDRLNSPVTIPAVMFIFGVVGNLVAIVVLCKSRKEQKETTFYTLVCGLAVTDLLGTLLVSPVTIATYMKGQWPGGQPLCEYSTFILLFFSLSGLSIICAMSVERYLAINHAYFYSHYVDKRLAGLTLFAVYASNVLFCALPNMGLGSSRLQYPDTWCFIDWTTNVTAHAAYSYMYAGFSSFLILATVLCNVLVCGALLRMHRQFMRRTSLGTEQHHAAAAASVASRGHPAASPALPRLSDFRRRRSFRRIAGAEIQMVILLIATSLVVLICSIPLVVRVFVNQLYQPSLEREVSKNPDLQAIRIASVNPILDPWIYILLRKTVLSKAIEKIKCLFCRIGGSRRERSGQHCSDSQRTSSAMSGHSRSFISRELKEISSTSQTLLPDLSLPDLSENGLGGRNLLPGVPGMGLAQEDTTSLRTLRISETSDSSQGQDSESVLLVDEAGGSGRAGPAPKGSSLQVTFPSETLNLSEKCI

Broadly, the IC50 is the concentration that gives 50% inhibition. For the compound `COCCNC(=O)c1ccc2nn(CC3CN(C(=O)c4cn(C)c5ccccc45)C3)cc2c1C` [Example 282, N-(2-methoxyethyl)-4-methyl-2-({1-[(1-methyl-1H-indol-3-yl)carbonyl]azetidin-3-yl}methyl)-2H-indazol-5-carboxamide], at human PGD receptor, the “Selectivity hEP2/hDP” value is “xxx (xxx > 100)”. The IC50 in assay [1] was found to be 20.1 nM. Moreover, the “Selectivity hEP2/hEP4” value in assay [2] is recorded as “xxx (xxx > 100)”.

Turning to `COCCNC(=O)c1ccc2nn(CC3CCN(C(=O)c4ccc(C(F)F)cc4)CC3)cc2c1C` [Example 32, 2-({1-[4-(difluoro-methyl)benzoyl]-piperidin-4-yl}-methyl)-N-(2-methoxyethyl)-4-methyl-2H-indazol-5-carboxamide], at human PGD receptor, the “Selectivity hEP2/hDP” value is given as “xxx (xxx > 100)”. Besides, the half-maximal inhibitory concentration (IC50) in assay [1] was determined as 10.4 nM. The “Selectivity hEP2/hEP4” value in assay [2] is reported as “xxx (xxx > 100)”.

For the compound `COc1cccc(-c2ccc(C(=O)N3CCC(Cn4cc5c(C)c(C(=O)NCC(F)(F)F)ccc5n4)CC3)cc2)n1` [Example 323, 2-({1-[4-(6-methoxypyridin-2-yl)benzoyl]piperidin-4-yl}methyl)-4-methyl-N-(2,2,2-trifluoroethyl)-2H-indazol-5-carboxamide], on human PGD receptor, the “Selectivity hEP2/hDP” value is “xxx (xxx > 100)”. The IC50 in assay [1] worked out at 128 nM. Also, in assay [2], the “Selectivity hEP2/hEP4” value is recorded as “xxx (xxx > 100)”.

Turning to `Cc1c(C(=O)NCC(C)(C)C)ccc2nn(CC3CCN(C(=O)c4ccc(Cl)cc4)CC3)cc12` [Example 251, 2-{[1-(4-chlorobenzoyl)piperidin-4-yl]methyl}-N-(2,2-dimethylpropyl)-4-methyl-2H-indazol-5-carboxamide], on human PGD receptor, the “Selectivity hEP2/hDP” value is recorded as “x (x: 1-10)”. Besides, in assay [1], the IC50 worked out at 3810 nM. The “Selectivity hEP2/hEP4” value in assay [2] is recorded as “x (x: 1-10)”.

`COCCNC(=O)c1ccc2nn(CC3CCN(C(=O)c4ccc(-c5ccc(C(F)(F)F)cc5)cc4)CC3)cc2c1C` [Example 360, N-(2-methoxyethyl)-4-methyl-2-[(1-{[4′-(trifluoromethyl)biphenyl-4-yl]-carbonyl}piperidin-4-yl)methyl]-2H-indazol-5-carboxamide]: the “Selectivity hEP2/hDP” value at human PGD receptor is recorded as “xxx (xxx > 100)”. Moreover, in assay [1], the IC50 was 6.27 nM. Moreover, the “Selectivity hEP2/hEP4” value in assay [2] is “xxx (xxx > 100)”.

Turning to `Cc1c(C(=O)NCC2CCCCO2)ccc2nn(CC3CCN(C(=O)c4ccc(Cl)cc4)CC3)cc12` (single isomer, unassigned) [Example 241, (S or R)-2-{[1-(4-chlorobenzoyl)piperidin-4-yl]methyl}-4-methyl-N-(3,4,5,6-tetrahydro-2H-pyran-2-ylmethyl)-2H-indazol-5-carboxamide], the “Selectivity hEP2/hDP” value on human PGD receptor is recorded as “xxx (xxx > 100)”. Further, in assay [1], the IC50 was determined as 9.03 nM. In addition, the “Selectivity hEP2/hEP4” value in assay [2] is given as “xxx (xxx > 100)”.

For the compound `COCCNC(=O)c1ccc2nn(CC3CCN(C(=O)c4ccc(-c5cnco5)cc4)CC3)cc2c1C` [Example 36, N-(2-methoxyethyl)-4-methyl-2-({1-[4-(oxazol-5-yl)-benzoyl]piperidin-4-yl}methyl)-2H-indazol-5-carboxamide], the “Selectivity hEP2/hDP” value at human PGD receptor is “xxx (xxx > 100)”. The IC50 in assay [1] was found to be 61.6 nM. Moreover, the “Selectivity hEP2/hEP4” value in assay [2] was “xxx (xxx > 100)”.

With `COCCNC(=O)c1cc2cn(CC3CCN(C(=O)c4ccc(Cl)cc4)CC3)nc2cc1C` [Example 205, 2-{[1-(4-chlorobenzoyl)piperidin-4-yl]methyl}-N-(2-methoxyethyl)-6-methyl-2H-indazol-5-carboxamide], on human PGD receptor, the “Selectivity hEP2/hDP” value is “xxx (xxx > 100)”. For the same compound, the half-inhibitory concentration (IC50) in assay [1] was determined as 43.3 nM. The “Selectivity hEP2/hEP4” value in assay [2] was “xxx (xxx > 100)”.

Take `COCCNC(=O)c1cc2cn(CC3CCN(C(=O)c4ccc(Cl)cc4F)CC3)nc2cc1C` [Example 207, 2-{[1-(4-chloro-2-fluorobenzoyl)piperidin-4-yl]methyl}-N-(2-methoxyethyl)-6-methyl-2H-indazol-5-carboxamide]: at human PGD receptor, the “Selectivity hEP2/hDP” value is recorded as “xxx (xxx > 100)”. Moreover, in assay [1], the IC50 was 30.3 nM. The “Selectivity hEP2/hEP4” value in assay [2] is “xxx (xxx > 100)”.

Take `Cc1c(C(=O)NCCN2CCOCC2)ccc2nn(CC3CCN(C(=O)c4ccc(C(F)(F)F)cc4)CC3)cc12` [Example 63, 4-methyl-N-(2-morpholinoethyl)-2-({1-[4-(trifluoromethyl)benzoyl]piperidin-4-yl}methyl)-2H-indazol-5-carboxamide]: the “Selectivity hEP2/hDP” value on human PGD receptor was “xx (xx: 10-100)”. Besides, the half-maximal inhibitory concentration (IC50) in assay [1] stood at 1440 nM. The “Selectivity hEP2/hEP4” value in assay [2] is recorded as “xx (xx: 10-100)”.

Regarding `Cc1c(C(=O)NCCSC(F)(F)F)ccc2nn(C[C@@H]3CCN(C(=O)c4ccc(OC(F)(F)F)cc4)C3)cc12` [Example 221, 4-methyl-2-({(R)-1-[4-(trifluoromethoxy)benzoyl]pyrrolidin-3-yl}methyl)-N-{2-[(trifluoromethyl)sulphanyl]ethyl}-2H-indazol-5-carboxamide], the “Selectivity hEP2/hDP” value on human PGD receptor is given as “xx (xx: 10-100)”. Also, in assay [1], the IC50 was 235 nM. The “Selectivity hEP2/hEP4” value in assay [2] is “xx (xx: 10-100)”.

As for `COc1c(C(=O)NCCN2CCOCC2)ccc2nn(CC3CN(C(=O)c4ccc(Cl)cc4)C3)cc12` [Example 258, 2-{[1-(4-chlorobenzoyl)azetidin-3-yl]methyl}-4-methoxy-N-(2-morpholinoethyl)-2H-indazol-5-carboxamide], the “Selectivity hEP2/hDP” value at human PGD receptor is reported as “xxx (xxx > 100)”. Besides, the IC50 in assay [1] was determined as 109 nM. Also, the “Selectivity hEP2/hEP4” value in assay [2] is recorded as “xxx (xxx > 100)”.

As for `Cc1c(C(=O)NCC(F)(F)F)ccc2nn(CC3CCN(C(=O)c4ccc(Br)cc4)CC3)cc12` [Example 316, 2-{[1-(4-bromobenzoyl)piperidin-4-yl]methyl}-4-methyl-N-(2,2,2-trifluoro-ethyl)-2H-indazol-5-carboxamide], the “Selectivity hEP2/hDP” value on human PGD receptor is on record as “xxx (xxx > 100)”. In addition, in assay [1], the IC50 stood at 79 nM. Moreover, the “Selectivity hEP2/hEP4” value in assay [2] is “xxx (xxx > 100)”.

Take `Cc1c(C(=O)NCCOC(C)C)ccc2nn(CC3CCN(C(=O)c4ccc(Oc5ccc(F)cc5)cc4)CC3)cc12` [Example 98, 2-({1-[4-(4-fluoro-phenoxy)benzoyl]-piperidin-4-yl}-methyl)-N-(2-isopropoxyethyl)-4-methyl-2H-indazol-5-carboxamide]: the “Selectivity hEP2/hDP” value on human PGD receptor is “xxx (xxx > 100)”. Further, the IC50 in assay [1] is 7.07 nM. Also, the “Selectivity hEP2/hEP4” value in assay [2] is recorded as “xxx (xxx > 100)”.

Regarding `COCCNC(=O)c1ccc2nn(CC3CCN(C(=O)c4ccc(S(F)(F)(F)(F)F)cc4)CC3)cc2c1OC` [Example 268, 4-methoxy-N-(2-methoxyethyl)-2-({1-[4-(pentafluoro-λ^6-sulphanyl)benzoyl]-piperidin-4-yl}methyl)-2H-indazol-5-carboxamide], the “Selectivity hEP2/hDP” value on human PGD receptor is given as “xxx (xxx > 100)”. In addition, in assay [1], the IC50 is 22.9 nM. The “Selectivity hEP2/hEP4” value in assay [2] is “xxx (xxx > 100)”.

`COCCNC(=O)c1ccc2nn(CC3CCN(C(=O)c4ccc(C(F)(F)F)cc4F)CC3)cc2c1OC` [Example 267, 2-({1-[2-fluoro-4-(trifluoromethyl)benzoyl]piperidin-4-yl}methyl)-4-methoxy-N-(2-methoxyethyl)-2H-indazol-5-carboxamide]: the “Selectivity hEP2/hDP” value on human PGD receptor is “xxx (xxx > 100)”. Also, the half-maximal inhibitory concentration (IC50) in assay [1] was determined as 45.5 nM. Also, the “Selectivity hEP2/hEP4” value in assay [2] is on record as “xxx (xxx > 100)”.
